Where two headings read alike, the source gives them in different places. Ends that are not written are not given here.
Assays:
[1] = tested on: human ductus arteriosus (DA) rings; assay: Human DA ring tension; conditions: for constriction of fresh human DA rings: hypoxia, 4-AP 1-10 mM, IBTx 200 nM
Procedure: DAs excised from 26 neonates with hypoplastic left heart syndrome during the Norwood procedure (age 9±2 days, 12 female, arterial PO2˜40 mmHg) were usedDAs were transported in iced saline, maintained in hypoxia and used within 1 hour. Ring tension was recorded as previously described in Michelakis E, et al. (2000) Lancet 356:134-7.
Optimal passive ring tension was determined to be 1 g, as defined by the maximal constriction to 80 mM KCl. Tension was recorded using a force transducer connected to a MacLab A-D convertor (AD Instruments, Toronto, Canada). Tension was recorded from rings bubbled with 95% N2 and 5% CO2 in Krebs' solution, to mimic in utero conditions (PO2 40 mmHg, pH 7.4, pCO2 40-50 mmHg). Normoxia was created by bubbling with 20%O2 and 5% CO2 (balance N2) resulting in PO2 150 mmHg, pH 7.4, and PCO2 40 mmHg. Optimal resting tension was previously found to be 1000 mg, as described in Michelakis E, et al. (2000) Lancet 356:134-7. To exclude the contribution of several endothelial-derived vasoactive substances, the Krebs' solution also contained meclofenamate 17 μM to inhibit PGHS and L-N^G-nitroarginine-methylester (L-NAME) 10^−5 M to inhibit NOS.

DASMC EM = assay: DASMC membrane potential EM (current clamp, DiBAC4(3)); format: cell-based, human
Procedure: (§1) Current and voltage clamp technique, SMC isolation and pipette solutions were performed as previously described in Michelakis E D, et al. (2002) Circ Res. 90:1307-15. The response to O2, ETC inhibitors and the membrane permeable H2O2 analog, t-butyl hydrogen peroxide, were compared between DASMCs enzymatically dispersed from fresh DAs versus those maintained in tissue culture for 72 hours (either under normoxic or hypoxic conditions).
DASMC EM was measured both using patch clamp technique in current clamp mode and noninvasively with DiBAC4(3) (20 μM, bis-barbituric acid oxonol), a potentiometric dye that increases green fluorescence upon depolarization. DiBAC4 loaded cells or intact DA rings were stimulated with multi-photon excitation at 740 nm and emission was measured in the green range, 505-530 nm. DASMCs were studied after culture in normoxic or hypoxic environment for 4-5 days. The acute change in EM that occurred in response to 4-AP (10 mM), KCL (80 mM) or a switch in PO2 from 40 to 120 mmHg was measured.

DASMC K+ current (IK) = assay: Whole-cell patch clamp of human DASMCs; format: cell-based; conditions: for IK at potentials close to the resting EM (-30 mV) / whole cell K+ current (IK): fresh human DASMC
Procedure: as §1
Cells were voltage clamped at a holding potential of −70 mV and currents were evoked by 10 mV steps to +50 mV using test pulses of 200 ms duration. Data were recorded and analyzed using pCLAMP 6.02 software (Axon Instruments, Foster City, Calif.). Current density was calculated (pA/pF) and plotted against voltage.

PASMC K+ current (IK) = assay: Whole-cell patch clamp of PASMCs; format: cell-based; conditions: normoxic-saline rat PASMCs
From the text: Fresh PASMC's were isolated from fourth division PA's by enzymatic dispersion and studied using conventional whole-cell patch-clamp technique at room temperature, as previously described in Archer S L, et al. (1998) J. Clin. Invest. 101:2319-30, and Michelakis E D, et al. (2001) Am. J. Physiol. Lung Cell Mol. Physiol. 280:L1138-47. All cells were voltage-clamped at a holding potential of −70 mV. Currents were evoked in stepwise fashion from −70 mV to +70 mV with test pulses of 200 ms. Whole-cell currents were divided by the capacitance of the cell, yielding current density. The pipette solution (intracellular) contained (mmol/L): KCl 134, KH2PO4 1.2, MgCl2 1.0, HEPES 5, pH 7.30, Na2ATP 5 and EGTA 5.

DASMC mitochondria = assay: Mitochondrial membrane potential in DASMCs (JC-1, TMRM); format: cell-based, human
Procedure: Mitochondrial membrane potential (Δψm) was measured using two independent and well-validated probes JC-1 and TMRM (tetramethyl rhodamine methyl ester), as previously described in Michelakis E D, et al. (2002) Circ Res. 90:1307-15.
First-passage cultured DASMC were loaded with either JC-1 (1 μM) or TMRM (20 nM) for 30 minutes (37° C.) at 37 C. Confocal images were obtained within 30 minutes using a Zeiss Axiovert 100M inverted microscope equipped with an Apochromat 40×1.2 water-corrected objective. Settings (amplifier gain, pin hole size and filter set) were kept constant between experiments.
[…]. JC-1 fluoresces in the red spectra in hyperpolarized mitochondria (high Δψm) and in the green spectra in depolarized mitochondria (low Δψm). KCl (40 mM) was used to clamp the plasmalemmal membrane potential in some experiments. […] TMRM binds the inner and outer aspects of the inner mitochondrial membrane and accumulates in the mitochondria at greater quantities than predicted by the Nernst equation. TMRM fluorescence red in proportion to ψm. A 488 nm Argon laser was used for excitation and the resultant red/green fluorescence was quantified in channels 1 and 2 using LP 560 nm and BP 505-530 nm filters, respectively. 8-bit images were collected with a laser loiter time of 4.48 μs/pixel. Pinholes yielded optical slices of 1 μm. Results are expressed as the ratio of red/green channel fluorescence.

human DA rings = assay: H2O2 production in DA rings (AmplexRed, lucigenin chemiluminescence)
Procedure: DA rings were loaded with lucigenin 5 μM and placed in a 2 ml heated cuvette at 37° C. Counts were recorded using a Packard 1900CA Liquid Scintillation Analyzer.
H2O2, was measured using a specific, fluorometric AmplexRed® assay, as previously described in Michelakis E D, et al. (2002 ) Circ Res. 90:1307-15. An independent, specific measure of the candidate redox mediator, H2O2, was made using the one-step, fluorometric Amplex Red (Molecular Probes, Eugene, Oreg.) assay. The assay detects H2O2 using 10-acetyl-3,7-dihydroxyphenoxazine (Amplex Red reagent) a stable probe that, in the presence of horseradish peroxidase (HRP), reacts with H2O2 with a 1:1 stoichiometry to produce the highly fluorescent substance, resorufin. The assay was calibrated (FIG. 15) and found to be linear over the range of 0.25 to 5.0 μM. Freshly harvested DA rings were placed in a normoxic or a hypoxic solution containing AmplexRed and, after 20 minutes, fluorescence was recorded (excitation 530 nm, emission 590 nm), see FIG. 15.

In the case of `Nc1ccncc1` [4-AP, 4-aminopyridine], the “constriction of fresh human DA rings” value [1] was “significantly constricts”, the “acute depolarization of ionically remodeled DASMCs” value (DASMC EM; chronically normoxic, returned acutely to hypoxia, 4-AP 10 mM) was “loose their ability to depolarize” and the “IK at potentials close to the resting EM (-30 mV)” value (DASMC K+ current (IK)) was “significant decreases”. The “whole cell K+ current (IK)” value (DASMC K+ current (IK)) was “significantly inhibit”, the “IK of DASMC from chronically normoxic DAs” value (DASMC K+ current (IK); returned to hypoxic conditions) was “unresponsive” and the “IK in N-S PASMCs” value (PASMC K+ current (IK)) was “reversible inhibition”.
In the case of `C=C(C)[C@H]1Cc2c(ccc3c2O[C@@H]2COc4cc(OC)c(OC)cc4[C@@H]2C3=O)O1` [rotenone], the “ψm in DASMCs” value (DASMC mitochondria) was “depolarizes”, the phenylephrine constriction [1] was “unaltered” and the “relaxation of chronically normoxic DA rings” value [1] was “no longer causes relaxation”. The “relaxation of the O2-preconstricted DA” value [1] was “relax”, the “IK acutely suppressed by O2” value (DASMC K+ current (IK)) was “precisely restoring the current” and the “IK of DASMC from chronically normoxic DAs” value (DASMC K+ current (IK)) was “unresponsive”. The H2O2 production (human DA rings) was “decreases”.
`CC(C)(C)OO` [t-butyl-H2O2, t-butyl hydrogen peroxide] was tested, and the “EM of fresh hypoxic DASMCs” value (DASMC EM; current clamp) was “depolarizes”, the “depolarizing response in chronically normoxic DASMCs” value (DASMC EM; current clamp) was “lost” and the “IK in freshly dispersed DASMCs” value (DASMC K+ current (IK); voltage clamp) was “inhibits”.
antimycin was tested, and the phenylephrine constriction ([1]; DA rings) was “unaltered” and the “relaxation of the O2-preconstricted DA” value ([1]; normoxic DA rings) was “relax”.
With “iberiotoxin (QFTDVDCSVSKECWSVCKDLFGVDRGKCMGKKCRCYQ; ends and bridges not checked; cysteine pairing not given here; UniProt P24663 1-37, looked up) [IBTx]” the “constriction of fresh human DA rings” value [1] was “does not”, the “IK at potentials close to the resting EM (-30 mV)” value (DASMC K+ current (IK)) was “minimal inhibition” and the “whole cell K+ current (IK)” value (DASMC K+ current (IK)) was “significantly inhibit”.

— patent publication US20040127447A1, “Augmentation of K+ channel expression using adenoviral vectors” (priority 2002, published 2004)
